Columns and labels:
Type in all cases: cell-based, human
[1] = test system: breast adenocarcinoma (MCF7) cells; assay: Antiproliferative MTT assay, MCF-7; settings: for IC50: Homo sapiens, MCF7, 72 h incubation, MTT, mean ± SD; for SI (MCF-7): SI = [IC50 HFF]/[IC50 MCF-7]
Procedure: (§1) The human ATCC tumor cell lines breast adenocarcinoma (MCF7), colorectal carcinoma (HT-29), pancreatic ductal adenocarcinoma (CFPAC-1), hepatocellular carcinoma (HepG2), and normal skin fibroblasts (HFF) derived from ATCC (American Type Culture Collection) were cultured in Dulbecco’s Modified Eagle Medium (DMEM) or Minimum Essential Medium (MEM) supplemented with 10% fetal bovine serum (FBS), 2 mM L-glutamine, 100 U/mL penicillin, and 100 µg/mL streptomycin (Lonza, Basel, Switzerland) in a humidified atmosphere with 5% CO2 at 37 °C. For the experiment, carcinoma cell lines and normal human cell lines were seeded in 96-well microtiter plates at a density of 3000 cells per well and 5000 cells per well, respectively, depending on the doubling time of the specific cell line. The test substances were then added at fivefold, tenfold dilutions (0.01 to 100 µM), freshly prepared in the growth medium on the day of testing, and incubated for a further 72 h. After 72 h of incubation, the growth rate of the cells was determined using the MTT assay according to the manufacturer’s guidelines. […] The IC50 values were calculated from the dose–response curves using linear regression analysis. The experiment was performed in tetraplicates in two individual experiments.
(§2) Newly synthesized compounds were evaluated for their cytotoxic activity in vitro against four human cancer cell lines, including human breast adenocarcinoma (MCF-7), ductal pancreatic adenocarcinoma (CFPAC-1), colorectal carcinoma (HT-29), and hepatocellular carcinoma (HepG2), as well as on non-cancerous skin fibroblasts (HFF-1), to check for non-specific toxicity. Furthermore, 5-Fluorouracil (5-FU) was used as a reference drug. The results are expressed as 50% inhibitory concentration (IC50) values and are listed in Table 2, Table 3, Table 4 and Table 5.

[2] = test system: pancreatic ductal adenocarcinoma (CFPAC-1) cells; assay: Antiproliferative MTT assay, CFPAC-1; settings: for IC50: Homo sapiens, CFPAC-1, 72 h, 72 h incubation, MTT, mean ± SD; for SI (CFPAC-1): SI = [IC50 HFF]/[IC50 CFPAC-1]
Procedure: as §1, §2

[3] = test system: colorectal carcinoma (HT-29) cells; assay: Antiproliferative MTT assay, HT-29; settings: for IC50: Homo sapiens, HT-29, 72 h, 72 h incubation, MTT, mean ± SD; for SI (HT-29): SI = [IC50 HFF]/[IC50 HT-29]
Procedure: as §1, §2

[4] = test system: hepatocellular carcinoma (HepG2) cells; assay: Antiproliferative MTT assay, HepG2; settings: for IC50: Homo sapiens, HepG2, 72 h, 72 h incubation, MTT, mean ± SD; for SI (HepG2): SI = [IC50 HFF]/[IC50 HepG2]
Procedure: as §1, §2

[5] = test system: normal skin fibroblasts (HFF-1); assay: Cytotoxicity MTT assay, normal skin fibroblasts; settings: Homo sapiens, HFF-1, 72 h, 72 h incubation, mean ± SD
Procedure: as §1, §2

SMILES | IC50 [1] [µM] | IC50 [2] [µM] | IC50 [3] [µM] | IC50 [4] [µM] | SI (HepG2) [4] | IC50 [5] [µM] | SI (HT-29) [3] | SI (MCF-7) [1] | SI (CFPAC-1) [2]
OC(Cn1cc(Cn2cnc3c(Cl)ncnc32)nn1)c1ccc(Cl)cc1 (centres unmarked) [Compound 38b, 6-Chloro-9-((1-(2-hydroxy-2-(4-chlorophenyl)ethyl)-1H-1,2,3-triazol-4-yl)methyl)-9H-purine] | 51 ± 8.9 | 36 ± 8.2 | 56 ± 2.8 | 49 ± 13.3 | 0.6 | 31 ± 5.3 | 0.6 | – | –
OCC(c1ccc(F)cc1)n1cc(Cn2ccc3c(Cl)ncnc32)nn1 (centres unmarked) [Compound 42a, 4-Chloro-7-((1-(2-hydroxy-1-(4-fluorophenyl)ethyl)-1H-1,2,3-triazol-4-yl)methyl)-7H-pyrrolo[2,3-d]pyrimidine] | 39 ± 16.9 | 36 ± 2.2 | 39 ± 1.9 | 47 ± 13.5 | – | 51 ± 16.5 | – | 1.3 | 1.4
OCC(c1ccc(C(F)(F)F)cc1)n1cc(Cn2cnc3ccccc32)nn1 (centres unmarked) [Compound 35a, 1-((1-(2-Hydroxy-1-(4-(trifluoromethyl)phenyl)ethyl)-1H-1,2,3-triazol-4-yl)methyl)-1H-benzimidazole] | 30 ± 0.9 | 27 ± 0.7 | 61 ± 0.7 | 59 ± 4.6 | – | > 100 | – | – | >3.7
O[C@@H](Cn1cc(Cn2cnc3c(Cl)ncnc32)nn1)c1ccccc1 [Compound (R)-36b, (R)-6-Chloro-9-((1-(2-hydroxy-2-phenylethyl)-1H-1,2,3-triazol-4-yl)methyl)-9H-purine] | 61 ± 3.7 | 66 ± 3.2 | 86 ± 11.6 | 57 ± 9.7 | >1.8 | > 100 | >1.2 | – | –
O[C@H](Cn1cc(Cn2cnc3c(Cl)ncnc32)nn1)c1ccc(F)cc1 [Compound (S)-37b, (S)-6-Chloro-9-((1-(2-hydroxy-2-(4-fluorophenyl)ethyl)-1H-1,2,3-triazol-4-yl)methyl)-9H-purine] | 73 ± 2.9 | 65 ± 5.4 | 24 ± 2.9 | 45 ± 1.9 | 1.6 | 70 ± 19.5 | 2.9 | – | –
OCC(c1ccc(Cl)cc1)n1cc(Cn2cnc3c(Cl)ncnc32)nn1 (centres unmarked) [Compound 38a, 6-Chloro-9-((1-(2-hydroxy-1-(4-chlorophenyl)ethyl)-1H-1,2,3-triazol-4-yl)methyl)-9H-purine] | 24 ± 8.8 | 48 ± 4.9 | 33 ± 6.06 | 34 ± 4.2 | 1.2 | 41 ± 16.3 | 1.2 | – | –
O[C@@H](Cn1cc(Cn2ccc3c(Cl)ncnc32)nn1)c1ccc(Cl)cc1 [Compound (R)-43b, (R)-4-Chloro-7-((1-(2-hydroxy-2-(4-chlorophenyl)ethyl)-1H-1,2,3-triazol-4-yl)methyl)-7H-pyrrolo[2,3-d]pyrimidine] | 35 ± 1.9 | 32 ± 16.1 | 48 ± 4.8 | 26 ± 8.2 | – | 20 ± 6.5 | – | 0.6 | 0.6
O[C@H](Cn1cc(Cn2ccc3c(Cl)ncnc32)nn1)c1ccccc1 [Compound (S)-41b, (S)-4-Chloro-7-((1-(2-hydroxy-2-phenylethyl)-1H-1,2,3-triazol-4-yl)methyl)-7H-pyrrolo[2,3-d]pyrimidine] | 45 ± 7.2 | 49 ± 18.5 | 41 ± 5.6 | 41 ± 12.4 | – | 58 ± 3.1 | – | 1.3 | 1.2

Second part, led by results:

IC50 [1] [µM] | IC50 [2] [µM] | IC50 [3] [µM] | IC50 [4] [µM] | SMILES | SI (HepG2) [4] | IC50 [5] [µM] | SI (HT-29) [3] | SI (MCF-7) [1] | SI (CFPAC-1) [2]
> 100 | > 100 | > 100 | 64 ± 3.1 | O[C@@H](Cn1cc(Cn2cnc3c(Cl)ncnc32)nn1)c1ccc(F)cc1 [Compound (R)-37b, (R)-6-Chloro-9-((1-(2-hydroxy-2-(4-fluorophenyl)ethyl)-1H-1,2,3-triazol-4-yl)methyl)-9H-purine] | 0.6 | 35 ± 5.5 | – | – | –
39 ± 10.1 | 48 ± 4.9 | 28 ± 3.8 | 46 ± 2.2 | OC(Cn1cc(Cn2ccc3c(Cl)ncnc32)nn1)c1ccc(Cl)cc1 (centres unmarked) [Compound 43b, 4-Chloro-7-((1-(2-hydroxy-2-(4-chlorophenyl)ethyl)-1H-1,2,3-triazol-4-yl)methyl)-7H-pyrrolo[2,3-d]pyrimidine] | – | 32 ± 14.1 | – | 0.8 | 0.7
45 ± 5.7 | 34 ± 3.2 | 49 ± 14.6 | 38 ± 11 | OC(Cn1cc(Cn2ccc3c(Cl)ncnc32)nn1)c1ccc(F)cc1 (centres unmarked) [Compound 42b, 4-Chloro-7-((1-(2-hydroxy-2-(4-fluorophenyl)ethyl)-1H-1,2,3-triazol-4-yl)methyl)-7H-pyrrolo[2,3-d]pyrimidine] | – | 51 ± 3.6 | – | 1.1 | 1.5
21 ± 1.6 | 9 ± 3.3 | 28 ± 1.9 | 32 ± 3.6 | OCC(c1ccc(C(F)(F)F)cc1)n1cc(Cn2ccc3ccccc32)nn1 (centres unmarked) [Compound 30a, 1-((1-(2-Hydroxy-1-(4-(trifluoromethyl)phenyl)ethyl)-1H-1,2,3-triazol-4-yl)methyl)-1H-indole] | – | 34 ± 1.6 | – | – | 3.7
69 ± 10.6 | 65 ± 18.9 | 61 ± 2.4 | 41 ± 10.6 | OC(Cn1cc(Cn2cnc3c(Cl)ncnc32)nn1)c1ccccc1 (centres unmarked) [Compound 36b, 6-Chloro-9-((1-(2-hydroxy-2-phenylethyl)-1H-1,2,3-triazol-4-yl)methyl)-9H-purine] | 1.9 | 80 ± 14 | 1.3 | – | –
32 | 30 ± 0.6 | 31 ± 0.9 | 32 ± 0.2 | OCC(c1ccc(Cl)cc1)n1cc(Cn2ccc3ccccc32)nn1 (centres unmarked) [Compound 28a, 1-((1-(2-Hydroxy-1-(4-chlorophenyl)ethyl)-1H-1,2,3-triazol-4-yl)methyl)-1H-indole] | – | 42 ± 4.6 | – | – | 1.4
60 ± 1.2 | 20 ± 0.9 | 27 ± 1.4 | 32 ± 6.04 | O[C@@H](Cn1cc(Cn2ccc3c(Cl)ncnc32)nn1)c1ccc(F)cc1 [Compound (R)-42b, (R)-4-Chloro-7-((1-(2-hydroxy-2-(4-fluorophenyl)ethyl)-1H-1,2,3-triazol-4-yl)methyl)-7H-pyrrolo[2,3-d]pyrimidine] | – | 24 ± 2.4 | – | 0.4 | 1.2
96 ± 1.8 | > 100 | > 100 | > 100 | OCC(c1ccc(Cl)cc1)n1cc(Cn2cnc3c(Cl)nccc32)nn1 (centres unmarked) [Compound 48a, 4-Chloro-1-((1-(2-hydroxy-1-(4-chlorophenyl)ethyl)-1H-1,2,3-triazol-4-yl)methyl)-1H-imidazo[4,5-c]pyridine] | – | > 100 | – | – | –
70 ± 20.5 | 69 ± 12.1 | > 100 | > 100 | OC(Cn1cc(Cn2cnc3ccccc32)nn1)c1ccc(Cl)cc1 (centres unmarked) [Compound 33b, 1-((1-(2-Hydroxy-2-(4-chlorophenyl)ethyl)-1H-1,2,3-triazol-4-yl)methyl)-1H-benzimidazole] | – | 64 ± 6.17 | – | – | 0.9
26 ± 8.5 | 43 ± 10.8 | 31 ± 2.2 | 23 ± 2.3 | O[C@H](Cn1cc(Cn2ccc3c(Cl)ncnc32)nn1)c1ccc(C(F)(F)F)cc1 [Compound (S)-45b, (S)-4-Chloro-7-((1-(2-hydroxy-2-(4-(trifluoromethyl)phenyl)ethyl)-1H-1,2,3-triazol-4-yl)methyl)-7H-pyrrolo[2,3-d]pyrimidin] | – | 43 ± 3.9 | – | 1.7 | 1.0
63 ± 8.4 | 51 ± 6.5 | > 100 | > 100 | OCC(c1ccc(F)cc1)n1cc(Cn2cnc3c(Cl)nccc32)nn1 (centres unmarked) [Compound 47a, 4-Chloro-1-((1-(2-hydroxy-1-(4-fluorophenyl)ethyl)-1H-1,2,3-triazol-4-yl)methyl)-1H-imidazo[4,5-c]pyridine] | – | 75 ± 14.2 | – | – | –
33 ± 5.8 | 32 ± 5.3 | 48 ± 4.8 | 21 ± 0.8 | O[C@H](Cn1cc(Cn2cnc3c(Cl)ncnc32)nn1)c1ccccc1 [Compound (S)-36b, (S)-6-Chloro-9-((1-(2-hydroxy-2-phenylethyl)-1H-1,2,3-triazol-4-yl)methyl)-9H-purine] | >4.8 | > 100 | >2.1 | – | –

Source: PMC11940194, “Synthesis, Antiproliferative Activity, and ADME Profiling of Novel Racemic and Optically Pure Aryl-Substituted Purines and Purine Bioisosteres” (Biomolecules, 2025)
